Measured values: patent US11007269B2, “P53 degradation inducing molecule and pharmaceutical composition” (Tokyo University of Science Foundation, priority 2016, dated 2021)

Tests used:
MDM2 protein = biological target: T1, MDM2 protein (Homo sapiens, UniProt Q00987); assay: Western blot of endogenous MDM2 protein degradation (knockdown) in HCT116 cells; assay type: cell-based; details: 48 hours after addition, vs DMSO control
T1 construct: endogenous in cells; host or cells: HCT116
Protocol: (§1) In Example 2, degradation (knockdown) of an endogenous wild-type p53 protein and MDM2 protein in HCT116 cells (human large intestinal cancer cells) to which TIBC-CANDDY_MLN had been added was evaluated by Western blot analysis.
(§2) HCT116 cells were seeded in a 24-well plate at a cell density of 8×10^4 cells/well, and then cultured under conditions of 37° C. and 5 vol % CO2 for 16 hours.
(§3) After 16 hours from cell seeding, TIBC-CANDDY_MLN or TIBC was added to HCT116 cells as follows. As a medium, a serum-free medium (37° C.) in which 1 mass % L-glutamine solution (Sigma-Aldrich) was added to D-MEM (high D-glucose, phenol red, sodium pyruvate (Wako Pure Chemical Industries, Ltd.)) was used. It is noted that the L-glutamine solution was added immediately before use. […]
(§4) After electrophoresis, proteins were transferred to a PVDF membrane (Immobion™-P, Millipore) under conditions of 100 V and 2 hours using a tank-type blotting device and a transfer buffer (25 mM Tris-HCl, 195 mM glycine, 0.01% SDS, 15% methanol). […] Subsequently, the membrane was treated with a chemiluminescence reagent Immobilon™ Western (Millipore), and then chemiluminescence was detected using a lumino image analyzer LAS-3000 (FUJIFILM Corporation).

[1] = biological target: endogenous wild-type p53 protein (Homo sapiens, UniProt P04637); assay: Western blot of endogenous wild-type p53 protein degradation (knockdown) in HCT116 cells; assay type: cell-based; set-up: degradation (knockdown) of an endogenous wild-type p53 protein and MDM2 protein in HCT116 cells; endogenous in cells; host or cells: HCT116; details: 48 hours after addition, vs DMSO control
Protocol: as §1, §2, §3, §4

T1 sequence (Q00987 whole entry): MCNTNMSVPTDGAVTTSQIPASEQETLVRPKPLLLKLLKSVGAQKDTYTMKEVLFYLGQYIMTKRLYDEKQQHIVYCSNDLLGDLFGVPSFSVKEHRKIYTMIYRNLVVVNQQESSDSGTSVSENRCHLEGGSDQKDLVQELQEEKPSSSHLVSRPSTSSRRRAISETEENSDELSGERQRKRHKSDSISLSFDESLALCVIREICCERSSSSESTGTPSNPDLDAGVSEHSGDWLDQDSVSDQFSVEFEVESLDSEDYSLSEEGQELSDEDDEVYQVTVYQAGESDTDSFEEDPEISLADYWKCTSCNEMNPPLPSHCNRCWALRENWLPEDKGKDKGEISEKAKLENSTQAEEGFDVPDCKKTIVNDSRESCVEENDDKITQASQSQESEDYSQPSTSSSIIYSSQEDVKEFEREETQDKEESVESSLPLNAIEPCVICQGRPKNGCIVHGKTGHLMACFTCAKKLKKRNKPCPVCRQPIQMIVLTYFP
Sequence of endogenous wild-type p53 protein (P04637 whole entry): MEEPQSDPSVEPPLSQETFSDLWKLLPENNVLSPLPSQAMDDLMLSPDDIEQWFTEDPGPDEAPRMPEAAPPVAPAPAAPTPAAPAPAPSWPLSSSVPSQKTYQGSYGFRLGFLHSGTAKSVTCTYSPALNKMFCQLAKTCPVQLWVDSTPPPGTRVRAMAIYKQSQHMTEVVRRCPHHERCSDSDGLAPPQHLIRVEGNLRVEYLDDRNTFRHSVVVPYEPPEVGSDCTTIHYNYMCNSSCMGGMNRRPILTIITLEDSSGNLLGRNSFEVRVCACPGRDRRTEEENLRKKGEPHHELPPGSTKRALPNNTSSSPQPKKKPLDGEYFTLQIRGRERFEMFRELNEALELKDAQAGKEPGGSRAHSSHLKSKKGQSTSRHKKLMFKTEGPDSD

CC(C)C[C@H](NC(=O)CNC(=O)c1cc(Cl)ccc1Cl)C(=O)NCCCCCCC(=O)Nc1ccc(C(=O)/C=C/c2ccc(I)cc2)cc1 [TIBC-CANDDY_MLN]
amount of the endogenous MDM2 protein (Western blot) (MDM2 protein): reduced | amount of the endogenous wild-type p53 protein (Western blot) [1]: reduced
